Reference: patent US11427588B2, “Compositions and methods for treating neurodegenerative diseases and cardiomyopathy” (THE REGENTS OF THE UNIVERSITY OF CALIFORNIA, priority 2013, dated 2022)
Entries after “also recorded” stand apart in the source; their conditions may differ.

Tests used:
[1] = system: SH-SY5Y cells; assay: H2O2 induced apoptosis, Annexin V / PI FACS assay; type: cell-based, human; conditions: for total amount of apoptotic cells: 50 μM for 96 hours, then 400 μM H2O2 for 24 hours
Experimental: Apoptosis assays and PINK1 shRNA: SH-SY5Y cells (ATCC) were cultured in 1:1 mix of F12K and DMEM supplemented with 20% FBS. PINK1 shRNA lentivirus were produced using a pLKO.1 based shRNA (Sigma) by contransfection with Δ8.9 and pMGD2 vectors in HEK293T cells. SH-SY5Y cells were infected with lentivirus followed by selection with puromycin ([…]). […] Subsequently, cells were stained with Annexin V-FITC and PI and analyzed (FACS Diva) on a FACS LSRII Cytometer ([…]) Apoptosis was calculated as the difference between H2O2 treated samples and the respective control.
Overexpression of PINK1 in neuronal cells (e.g. dopaminergic (DA)) promotes survival in response to oxidative stress and other mitochondrial toxins^7. Before testing the effects of kinetin on apoptosis, we treated DA neurons with 50 μM of either kinetin or adenine and measured cell density after 10 days. […] SH-SY5Y cells were treated with 50 μM kinetin, adenine or DMSO for 96 hours, followed by 400 μM H2O2 treatment for additional 24 hours. Using a cytometry-based FACS assay involving cellular annexin V and propidium iodide staining, we determined the percentage of apoptotic cells after treatment with DMSO, adenine or kinetin.

[2] = system: PINK1−/− mice; assay: Heart health and performance in mice treated from birth; type: in vivo
Experimental: PINK1 expression is protective in several mouse models of heart failure. PINK1wt expression will block pathological hypertrophy, increase heart fractional shortening, and prevent ischemia induced death of heart tissue. To assay the effect of kinetin PINK1 wt or PINK1−/− mice were treated with vehicle, adenine or kinetin from birth following published protocols for administration of kinetin (Hims et al., 2007; Shetty et al., 2011). The mice were sacrificed and whole hearts analyzed, and isolated cardiomyocytes from mice at appropriate time periods (e.g. 2 and 6 months). O2 consumption, mitochondrial integrity (mtDNA abundance, mitochondrial capacity and JC-1 fluorescence) caspase 3/7 cleavage activity and TUNEL staining were measured to assess the health of these tissues. According to published results (Billia et al., 2011; Chen and Dorn, 2013), PINK1 activity is essential for normal 02 consumption and maintenance of mitochondrial integrity. Decreased 02 consumption and mitochondrial integrity in PINK1−/− mice was compared to PINK1wt mice. […] Additionally, caspase 3/7 cleavage activity and TUNEL staining of the left ventricle were increased in PINK1−/− mice derived cardiomyocytes compared to PINK1wt.
In addition to these analyses we analyzed the performance of the heart in whole animals. We utilized the same procedure as above and treated either PINK1wt or PINK1−/− mice with vehicle, adenine or kinetin from birth following published protocols for administration of kinetin (Hims et al., 2007; Shetty et al., 2011). […] These characteristics of pathological hypertrophy indicate heart failure in the PINK1−/− mice will not increase as dramatically in PINK1wt mice (Billia et al., 2011). […] These experiments indicate that amplification of PINK1 activity by treatment with kinetin can block age-induced loss in heart function.

[3] = system: PINK1wt mice; assay: Heart stress model (trans-aortic banding, angiotensin II); type: in vivo; conditions: two weeks dosing, TAB or Angiotensin II; for pathological hypertrophy: 14 days
Text: Stress on the heart also induces pathological hypertrophy and increased apoptosis, and serves as a good model for heart disease. We utilized trans-aortic banding (TAB) and treatment with angiotensin II to increase pressure in the heart and a model for heart attack by induced myocardial infarction. We treated mice as above with kinetin as well as adenine and vehicle controls for two weeks. We then increased pressure in the heart by performing surgery to partially occlude the aorta (TAB) or sham operation. Additionally we directly injected of a bolus of Angiotensin II or saline into the heart (Billia et al., 2011) to increase blood pressure. […] As the depletion of PINK1 leads to more pathological hypertrophy and increased apoptosis, by amplifying PINK1 activity these characteristics of heart failure will be further reduced.

[4] = system: PINK1−/− mice; assay: Induced myocardial infarction model; type: in vivo
Experimental: Utilizing mice dosed with kinetin, adenine or vehicle for two weeks, we induced myocardial infarction by ligating the left anterior descending artery at the level of the left atrial appendage (Wang et al., 2006) or sham surgery. Following infarct for 24 or 72 hours, we sacrificed the mice and analyzed the heart by TUNEL staining as cardiomyocytes are susceptible to cell death following infarct. […] These experiments replicate our results in neurons in which kinetin treatment will block apoptosis in response to a number of cellular stressors.

[5] = system: PINK1^G309D mutant expressing cells; assay: Parkin S65 phosphorylation after CCCP, phospho specific antibodies after immuno-precipitating Parkin; type: cell-based; conditions: S65 phosphosite
Experimental: Parkin phosphorylation and mitochondrial translocation assay: HeLa cells were grown in DMEM supplemented with 10% FBS. Log phase cells were plated in 24 well plates with glass coverslips (Mattek) pretreated with fibronectin. Cells were pretreated with 50 μM of the indicated compound, followed by transfection with MitoGFP, mCherry Parkin, and full length PINK1FLAG3 in a 1:4:2 ratio using Fugene 6 (Promega). Fields of cells were selected by expression of MitoGFP (6 fields/well-3 wells/condition) and imaged at five-minute intervals following depolarization with 5 μM CCCP. Quantification was performed according to published protocols^3 and by creation of a Matlab based script.
To test the PINK1-dependency of our findings, we assayed PINK1 activity by using phospho specific antibodies raised against Parkin's PINK1-specific S65 phosphosite^21 after immuno-precipitating Parkin. […] To test whether kinetin stimulated Parkin localization was due to reversible binding of kinetin to PINK1, we treated the cells with fresh medium for 96 hours before performing a new recruitment assay. Similar recruitment rates were observed following the washout (FIG. 2F). […] We followed previously published methods to calculate the percentage of GFP labeled mitochondria with mCherryParkin associated. […]

SMILES	total amount of apoptotic cells [1]	age induced pathological hypertrophy [2]	pathological hypertrophy [3]	scar size and level of collagen deposition [4]	phosphorylation levels of Parkin [5]	total amount of apoptotic cells ([1]; listed as Kinetin)	total number of apoptotic cells ([1]; 48 hours of treatment, then 24 hours of 400 uM hydrogen peroxide)	total number of TUNEL positive cells, left ventricle [3]
Nc1ncnc2nc[nH]c12 [adenine, reference compound]	no significant change	no effect	not	not	not			
c1coc(CNc2ncnc3[nH]cnc23)c1 [kinetin]	significant decrease; also recorded: blocks apoptosis	no effect	reduces the pathological hypertrophy	not	significantly increased; also recorded: Robust increase	blocks apoptosis	Decrease in the total number of apoptotic cells	reduced the total number of TUNEL positive cells
